Results: patent publication US8143419B2, “Trisubstituted 1,2,4-triazoles” (Janssen Pharmaceutica N. V., priority 2006, dated 2012)
Structures can show the parent of a compound that is named as a salt.

Key:
hα7-wt nAChR = target: T1, hα7-wt nAChR (Homo sapiens, UniProt P36544); experiment: Ca2+ flux imaging (FDSS) (Protocol B), PAM activity with choline as agonist; type: cell-based; conditions: for EC50: "<5" = no top plateau at maximal concentration; for Emax: read-out: % efficacy
T1 construct: expressed in transfected cells
Method: • Hanks buffered saline solution (HBSS, Invitrogen, Belgium), supplemented with 10 mM HEPES (Invitrogen, Belgium), CaCl2 to a final concentration of 5 mM, 0.1% Bovine serum albumin (Sigma-Aldrich NV, Belgium). b) Calcium-Sensitive Dye—Fluo-4AM • Fluo-4AM (Molecular Probes, USA) was dissolved in DMSO containing 10% Pluronic acid (Molecular Probes, USA) to give a stock solution which was diluted in assay buffer supplemented with 5 mM probenicid (Sigma, Aldrich NV, Belgium) to give a final concentration of 2 μM. c) 384-Well Plates • Black 384 well plate black/clear plates, PDL pre-coated (Corning, Incorporated, USA) d) Calcium Flux Measurement
A Functional drug screening system (FDSS, Hamamatsu) was used to measure intracellular free-calcium flux signals.
Monolayers of hα7-wt nAChR-expressing cells were grown in multi-well plates, in particular black-sided, transparent bottomed 384 well plates coated with poly-D-lysine for 24 hours prior to loading with a fluorescent calcium indicator, in a particular embodiment loading with fluo-4AM for up to 120 minutes.
PAM activity was detected in real time by applying the compounds to be tested to the loaded cells along with a α7 nicotinic receptor agonist during constant monitoring of cellular fluorescence in a FDSS. Compounds giving peak fluorescent responses greater than the response due to agonist alone, were considered to be α7 nAChR PAM's. In a particular embodiment, the α7 nicotinic receptor agonist was choline, a more particular embodiment choline applied at a sub-maximal concentration of 100 μM. In a further setting of the present invention the compounds to be tested were applied prior to the α7 nicotinic receptor agonist, in a particular embodiment up to 10 minutes prior to the agonist.
A control response to choline was calculated on each plate from the difference in peak in fluorescence in wells receiving either choline or assay buffer alone. Compounds of the present invention were tested at a concentration range from 0.01 μM to 30 μM. Compounds were considered to have an interesting activity when they potentiated the choline signal at least with 500% when tested at a concentration of 30 μM (the efficacy of 100 μM choline was defined as 100% in the absence of a PAM). The compounds also have a potentiating effect on the response to choline when measured by whole-cell patch clamp electrophysiology in GH4C1 cells stably over-expressing the human wild-type α7 receptor.

T1 sequence (P36544 23-502): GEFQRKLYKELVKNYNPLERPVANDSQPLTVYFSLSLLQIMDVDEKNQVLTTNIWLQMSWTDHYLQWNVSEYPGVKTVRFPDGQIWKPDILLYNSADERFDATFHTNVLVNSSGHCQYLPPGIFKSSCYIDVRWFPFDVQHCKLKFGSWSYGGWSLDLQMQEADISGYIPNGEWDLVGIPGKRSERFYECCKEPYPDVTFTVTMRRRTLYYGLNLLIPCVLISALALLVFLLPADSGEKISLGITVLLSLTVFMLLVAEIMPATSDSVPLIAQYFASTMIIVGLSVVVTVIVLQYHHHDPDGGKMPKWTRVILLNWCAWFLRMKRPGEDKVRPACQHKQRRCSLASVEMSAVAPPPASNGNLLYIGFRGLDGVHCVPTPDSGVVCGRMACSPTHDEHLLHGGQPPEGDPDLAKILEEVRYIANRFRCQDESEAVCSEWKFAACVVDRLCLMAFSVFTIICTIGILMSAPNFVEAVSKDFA

Row | Structure (SMILES) | EC50 (hα7-wt nAChR) | melting point | Emax (hα7-wt nAChR)
1 | Cc1cc(-c2nc(Nc3ccc4c(c3)OC(F)(F)O4)nn2CC(=O)NC2CCC2)ccn1 [Compound 205] | 0.794 µM | 224.8 °C | –
2 | CNC(=O)Cn1nc(Nc2ccc3c(c2)OC(F)(F)O3)nc1-c1ccnc(C)c1 [Compound 200] | 2 µM | 227 °C | –
3 | CCNC(=O)Cn1nc(Nc2ccc3c(c2)OC(F)(F)O3)nc1-c1ccnc(C)c1F [Compound 201] | 1 µM | 223.5 °C | –
4 | CNC(=O)Cn1nc(Nc2cccc(C(F)(F)F)c2)nc1-c1ccc2c(c1)OCCO2 [Compound 1] | 0.251 µM | 206.2 to 207.1 °C | –
5 | CN(C)C(=O)CCCn1nc(Nc2ccc(F)c(C(F)(F)F)c2)nc1-c1ccnc(Cl)c1 [Compound 68] | 0.794 µM | 168.8 °C | –
6 | CC(O)Cn1nc(Nc2cccc(OC(F)(F)F)c2)nc1-c1ccnc(C2CC2)c1 (centres unmarked) [Compound 151] | 2 µM | – | –
7 | COc1ccc(Nc2nc(-c3ccnc(C)c3)n(CCC(=O)N(C)C)n2)cc1C(F)(F)F [Compound 144] | 0.2 µM | 177.2 °C | –
8 | CC(C)(C)OC(=O)CCn1nc(Nc2ccc(F)c(C(F)(F)F)c2)nc1-c1ccnc(CN)c1 [Compound 30] | – | 151.6 °C | –
9 | COc1ccc(Nc2nc(-c3ccncc3Cl)n(CCC(=O)N(C)C)n2)cc1C(F)(F)F [Compound 145] | 0.2 µM | 211.2 °C | –
10 | COCCNC(=O)Cn1nc(Nc2cccc(C(F)(F)F)c2)nc1-c1ccncc1 [Compound 24] | > 10 µM | 184.2 to 188.1 °C | –
11 | COc1cc(Nc2nc(-c3ccnc(C)c3)n(CCC(=O)N(C)C)n2)ccc1F [Compound 187] | 3.98 µM | 137.3 °C | –
12 | NC(=O)CCn1nc(Nc2cccc(C(F)(F)F)c2)nc1-c1ccc2c(c1)OCCO2 [Compound 10] | 2 µM | 175.2 to 176.5 °C | –
13 | CCNC(=O)Cn1nc(Nc2cc(Br)cc(C(F)(F)F)c2)nc1-c1ccc(OC)c(OCc2ccccc2)c1 [Compound 142] | 0.1 µM | – | –
14 | FCCn1nc(Nc2ccc(F)c(C(F)(F)F)c2)nc1-c1ccc(C2CC2)nc1 [Compound 96] | 2.51 µM | 126.5 °C | –
15 | O=C(Cn1nc(Nc2ccc(F)c(C(F)(F)F)c2)nc1-c1ccnc(CO)c1)NC1CC1 [Compound 61] | 5.01 µM | 242.2 °C | –
16 | O=C(CCn1nc(Nc2cccc(C(F)(F)F)c2)nc1-c1ccncc1)N1CCOCC1 [Compound 86] | 1.26 µM | – | –
17 | OCCn1nc(Nc2cccc(C(F)(F)F)c2)nc1-c1ccncc1 [Compound 2] | 7.94 µM | 179.1 to 180 °C | –
18 | Cc1cc(-c2nc(Nc3ccc4c(c3)OC(F)(F)O4)nn2CCC(=O)N(C)C)cc(C)n1 [Compound 209] | 0.398 µM | 182.2 °C | –
19 | CN(C)C(=O)CCn1nc(Nc2ccc(F)c(C(F)(F)F)c2)nc1-c1cccnc1 [Compound 125] | 0.631 µM | 190 °C | –

Row | Structure (SMILES) | EC50 (hα7-wt nAChR) | melting point | Emax (hα7-wt nAChR)
20 | Cc1cc(-c2nc(Nc3ccc4c(c3)OC(F)(F)O4)nn2CC(=O)NC2CCCC2O)ccn1 (centres unmarked) [Compound 207] | > 10 µM | 219.7 °C | 811%
21 | CCc1cc(-c2nc(Nc3cccc(C(F)(F)F)c3)nn2CCO)ccn1 [Compound 70] | 2 µM | 167.9 °C | –
22 | CCNC(=O)Cn1nc(Nc2ccc3c(c2)OC(F)(F)O3)nc1-c1ccnc(C)c1 [Compound 46] | 2 µM | 244.9 °C | –
23 | Cc1cc(-c2nc(Nc3ccc(F)c(C(F)(F)F)c3)nn2C[C@H](C)O)ccn1 [Compound 97] | 3.16 µM | 145.2 °C | –
24 | N/C(CCn1nc(Nc2ccc(F)c(C(F)(F)F)c2)nc1-c1ccnc(Cl)c1)=N\O [Compound 55] | – | 166.8 °C | –
25 | C[C@H](O)Cn1nc(Nc2ccc(F)c(C(F)(F)F)c2)nc1-c1cnc2c(c1)OCC2 [Compound 105] | 3.98 µM | 174.4 °C | –
26 | CN(C)C(=O)CCn1nc(Nc2ccc(F)c(C(F)(F)F)c2)nc1-c1ccc(C2CC2)nc1 [Compound 132] | 0.0158 µM | 177.3 °C | –
27 | CNC(=O)Cn1nc(Nc2ccc(F)c(C(F)(F)F)c2)nc1-c1ccncc1NC [Compound 114] | 0.631 µM | 260.8 °C | –
28 | CNC(=O)Cn1nc(Nc2ccc(F)c(C(F)(F)F)c2)nc1-c1ccc(NCCOC)nc1 [Compound 115] | > 10 µM | 207.1 °C | –
29 | CC(=O)c1cc(-c2nc(Nc3ccc(F)c(C(F)(F)F)c3)nn2CC(=O)NC2CC2)ccn1 [Compound 123] | 1.26 µM | 213.2 °C | –
30 | CC(O)Cn1nc(Nc2cccc(OC(F)(F)F)c2)nc1-c1ccnc(C2CC2)c1 (centres unmarked) (as salt: HCl) [Compound 151] | – | 207.5 °C | –
31 | CCNc1ccc(-c2nc(Nc3ccc(F)c(C(F)(F)F)c3)nn2CCC(=O)N(C)C)cn1 [Compound 130] | 0.1 µM | 201.1 °C | –
32 | O=C(O)CCn1nc(Nc2ccc(F)c(C(F)(F)F)c2)nc1-c1ccnc(Cl)c1 [Compound 31] | – | 180.7 °C | –
33 | COc1cc(Nc2nc(-c3ccnc(NCCO)c3)n(CC(=O)NCCO)n2)cc(C(F)(F)F)c1 [Compound 147] | > 10 µM | – | 864%
34 | CCNc1cnccc1-c1nc(Nc2cccc(OC(F)(F)F)c2)nn1CC(C)O (centres unmarked) [Compound 149] | 1 µM | – | 704%
35 | COc1cc(OC)c(Nc2nc(-c3ccncc3)n(CCO)n2)cc1Cl [Compound 15] | – | 207.2 to 207.9 °C | –
36 | COc1ccc(Cl)cc1Nc1nc(-c2ccc3c(c2)OCCO3)n(CCC(=O)N(C)C)n1 [Compound 197] | 0.126 µM | – | –
37 | C[C@@H](O)Cn1nc(Nc2ccc(F)c(C(F)(F)F)c2)nc1-c1ccc(C2CC2)nc1 (as salt: HCl) (hydrate or solvate) [Compound 100] | – | 204.6 °C | –
38 | CC(C)(C)NC(=O)CCn1nc(Nc2ccc(F)c(C(F)(F)F)c2)nc1-c1ccncc1 [Compound 137] | 1.58 µM | – | –

Row | Structure (SMILES) | EC50 (hα7-wt nAChR) | melting point | Emax (hα7-wt nAChR)
39 | CN(C)CCNC(=O)Cn1nc(Nc2cccc(OC(F)(F)F)c2)nc1-c1ccc2c(c1)OCCO2 [Compound 161] | 1.58 µM | – | 550%
40 | COCCNc1ccc(-c2nc(Nc3ccc(F)c(C(F)(F)F)c3)nn2CCO)cn1 [Compound 93] | 3.16 µM | – | 764%
41 | C[C@H](O)Cn1nc(Nc2ccc(F)c(C(F)(F)F)c2)nc1-c1ccc(C2CC2)nc1 [Compound 101] | 0.631 µM | – | –
42 | CNC(=O)CCn1nc(Nc2cccc(C(F)(F)F)c2)nc1-c1ccc2c(c1)OCCO2 [Compound 12] | 0.794 µM | – | –
43 | C[C@H](O)Cn1nc(Nc2ccc(F)c(C(F)(F)F)c2)nc1-c1cnc2ccoc2c1 [Compound 106] | 2.51 µM | – | –
44 | C[C@H](O)Cn1nc(Nc2ccc(F)c(C(F)(F)F)c2)nc1-c1ccnc(C2CC2)c1 [Compound 102] | 2 µM | – | –
45 | CN(C)C(=O)CCn1nc(Nc2ccc(F)c(C(F)(F)F)c2)nc1-c1cnc2c(c1)CCN2 [Compound 58] | 0.158 µM | – | –
46 | OCCn1nc(Nc2ccc(F)c(C(F)(F)F)c2)nc1-c1ccc(NC2CC2)nc1 [Compound 95] | 2 µM | – | 899%
47 | CC(C)NC(=O)CCn1nc(Nc2cccc(C(F)(F)F)c2)nc1-c1ccncc1 [Compound 22] | – | 196.5 to 197.2 °C | –
48 | CC(C)(C)OC(=O)CCn1nc(Nc2ccc(F)c(C(F)(F)F)c2)nc1-c1ccnc(C#N)c1 [Compound 29] | – | 156.1 °C | –
49 | N#CCCn1nc(Nc2cccc(C(F)(F)F)c2)nc1-c1ccncc1 [Compound 64] | – | 155.9 to 157.1 °C | –
50 | CN(C)C(=O)CCn1nc(Nc2ccc(F)c(C(F)(F)F)c2)nc1-c1ccnc(CN)c1 [Compound 60] | 3.98 µM | – | 772%
51 | CN(C)C(=O)CCn1nc(N2CCc3ccc(C(F)(F)F)cc32)nc1-c1ccc2c(c1)OCCO2 [Compound 211] | 1 µM | – | –
52 | Cc1cc(-c2nc(Nc3ccc4c(c3)OC(F)(F)O4)nn2CC(C)O)ccn1 (centres unmarked) [Compound 198] | > 10 µM | – | –
53 | CCNc1cc(-c2nc(Nc3ccc(F)c(C(F)(F)F)c3)nn2C[C@H](C)O)ccn1 [Compound 99] | 1 µM | – | –
54 | OCCn1nc(Nc2cc(Cl)ccc2Cl)nc1-c1ccccc1 [Compound 17] | – | 140.5 to 142 °C | –
55 | Cc1noc(CCn2nc(Nc3ccc(F)c(C(F)(F)F)c3)nc2-c2ccncc2)n1 [Compound 69] | 2 µM | – | –
56 | C[C@H](O)Cn1nc(Nc2cc(F)c(F)c(F)c2)nc1-c1ccnc(NC2CC2)c1 [Compound 173] | 0.501 µM | – | –
57 | CN(C)C(=O)CCn1nc(Nc2cccc(Cl)c2)nc1-c1ccc2c(c1)OCCO2 [Compound 195] | 0.0794 µM | – | –
